Residues, ends and D or L forms follow the SMILES beside them.
Molecular target: T1, TSH receptor on human thyroid membranes (Homo sapiens, UniProt P16473)
T1 construct: Thyroid tissue obtained at surgery from patients with Graves' disease was prepared as described by Takahashi et al; from tissue; host or cells: human thyroid tissue from Graves' disease patients, 2000xg membrane fraction
Experiment: TSH radioreceptor assay: inhibition of 125I-bTSH binding to human thyroid membrane preparations
Details: for IC50: read-out: bTSH ED50 (effective dose necessary to inhibit binding of 125I-bTSH by 50%)
Description: Thyroid tissue obtained at surgery from patients with Graves' disease was prepared as described by Takahashi et al., J. Clin. Endocrinol. Metab. 47:870 (1978), the disclosure of which is incorporated herein. Briefly, the tissue was dissected free of fibrous material, minced with scissors, and homogenized with Polytron homogenizer. The 2000×g fraction was collected by centrifugation, washed and resuspended in 40 mM Tris, 0.1% Bovine Serum Albumin (BSA) pH 7.4 at a concentration of 100 mg equivalents of wet tissue per milliliter. The preparation was stored at -70° C. until used for assay.
Highly purified bovine TSH (30 IU/mg, supplied by Dr. J. G. Pierce, UCLA) was radio-iodinated (Na^125 I, Amersham, Chicago) by a gentle lactoperoxidase procedure described by Takahashi et al., supra, then purified by Sephadex G-100 chromatography.
The membrane assay incubation mixture consisted of […] of the 2000×g membrane fraction, 0.125 ng ^125 I bTSH (approximately 20,000 cpm, 5×10^-12 M), 100 ul of 1% Triton X-100 and noted amounts of test materials in a final volume of 0.5 ml of 40 mM Tris-HCl pH 7.4 plus 0.1% BSA. Nonspecific binding was determined by addition of excess unlabeled bTSH (200 mU/ml, Sigma, St. Louis). After 2 hrs incubation at 25° C., 200 ul of 5 mg/ml bovine gamma globulin and 1 ml 30% polyethylene glycol 6000 (Baker, Phillipsburg, N.J.) in 1M NaCl was added to each tube and the tubes centrifuged at 4000 rpm for 25 minutes. The supernatants were aspirated and pellets counted in a gamma counter. Specific binding averaged 25% of total counts.
FIG. 1 reports 5×10^-12 M labeled bTSH incubated with 10 mg equivalents (wet weight) of 2000×g fraction of thyroid membranes with varying concentrations of unlabeled TSH or synthetic α-subunit peptides. Nonspecific binding was determined in the presence of excess unlabeled TSH.

[1] = human thyroid membrane homogenates, ± S.E.

T1 sequence (P16473 21-764): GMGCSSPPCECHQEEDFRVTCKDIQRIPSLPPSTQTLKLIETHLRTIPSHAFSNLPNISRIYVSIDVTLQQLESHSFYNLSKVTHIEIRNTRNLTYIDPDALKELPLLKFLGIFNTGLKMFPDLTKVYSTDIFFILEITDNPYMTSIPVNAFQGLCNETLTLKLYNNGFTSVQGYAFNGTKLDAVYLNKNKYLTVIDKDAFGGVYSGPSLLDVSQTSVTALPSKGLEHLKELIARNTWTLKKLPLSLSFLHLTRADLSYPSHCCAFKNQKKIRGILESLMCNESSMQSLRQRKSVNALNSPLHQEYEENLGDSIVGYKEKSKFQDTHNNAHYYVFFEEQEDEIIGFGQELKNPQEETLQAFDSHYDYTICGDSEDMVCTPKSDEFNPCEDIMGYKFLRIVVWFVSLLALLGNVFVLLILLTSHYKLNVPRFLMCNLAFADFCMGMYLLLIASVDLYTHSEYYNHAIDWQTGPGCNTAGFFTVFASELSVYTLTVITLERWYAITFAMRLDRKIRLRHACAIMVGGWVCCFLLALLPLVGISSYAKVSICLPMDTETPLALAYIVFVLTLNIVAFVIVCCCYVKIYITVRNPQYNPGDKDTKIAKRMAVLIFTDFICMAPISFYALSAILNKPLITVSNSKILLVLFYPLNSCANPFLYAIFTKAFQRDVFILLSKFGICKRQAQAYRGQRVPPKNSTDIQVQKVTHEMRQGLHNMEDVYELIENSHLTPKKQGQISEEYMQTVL

bTSH ED50 (effective dose necessary to inhibit binding of 125I-bTSH by 50%) [1] | SMILES | IC50 [1] | displacement of 125I-bTSH label (at concentrations greater than 1×10^-5 m, FIG. 1)
– | CSCC[C@H](NC(=O)[C@@H](NC(=O)[C@H](CCCCN)NC(=O)[C@H](CCCCN)NC(=O)[C@H](CO)NC(=O)[C@H](CCCNC(=N)N)NC(=O)[C@@H](N)CC(C)C)[C@@H](C)O)C(=O)N[C@@H](CC(C)C)C(=O)N[C@H](C(=O)N[C@@H](CCC(N)=O)C(=O)N[C@@H](CCCCN)C(=O)N[C@@H](CC(N)=O)C(=O)N[C@H](C(=O)N[C@H](C(=O)N[C@@H](CO)C(N)=O)[C@@H](C)O)C(C)C)C(C)C [α41-55, Leu--Arg--Ser--Lys--Lys--Thr--Met--Leu--Val--Gln Lys--Asn--Val--Thr--Ser] (H-LRSKKTMLVQKNVTS-NH2) | 171 ± 28.3 µM | –
no activity | CC[C@H](C)[C@H](NC(=O)[C@@H]1CCCN1C(=O)[C@H](C)NC(=O)CNC(=O)[C@@H]1CCCN1C(=O)[C@H](CCC(N)=O)NC(=O)[C@H](CO)NC(=O)[C@H](Cc1ccccc1)NC(=O)[C@H](Cc1ccccc1)NC(=O)[C@@H]1CCCN1C(=O)[C@H](CC(N)=O)NC(=O)[C@H](CCC(=O)O)NC(=O)[C@H](CCC(N)=O)NC(=O)[C@H](CC(C)C)NC(=O)[C@@H](N)[C@@H](C)O)C(N)=O [α11-25, Thr--Leu--Gln--Glu--Asn--Pro--Phe--Phe--Ser--Gln--Pro--Gly--Ala--Pro--Ile] (H-TLQENPFFSQPGAPI-NH2) | – | –
– | CC(C)C[C@H](NC(=O)[C@@H]1CCCN1C(=O)[C@@H](NC(=O)[C@@H]1CCCN1C(=O)[C@H](Cc1ccc(O)cc1)NC(=O)[C@H](C)NC(=O)[C@H](CCCNC(=N)N)NC(=O)[C@H](CO)NC(=O)[C@H](Cc1ccccc1)NC(=O)[C@H](CS)NC(=O)[C@@H](N)CS)[C@@H](C)O)C(=O)N[C@@H](CCCNC(=N)N)C(=O)N[C@@H](CO)C(=O)N[C@@H](CCCCN)C(=O)N[C@@H](CCCCN)C(N)=O [α31-45, Cys--Cys--Phe--Ser--Arg--Ala--Tyr--Pro--Thr--Pro--Leu--Arg--Ser--Lys--Lys] (H-CCFSRAYPTPLRSKK-NH2) | 31.2 ± 3.8 µM | more than 80%
– | CC(C)[C@H](NC(=O)[C@H](CS)NC(=O)[C@H](CS)NC(=O)[C@@H](NC(=O)[C@H](CO)NC(=O)[C@H](CCC(=O)O)NC(=O)[C@H](CO)NC(=O)[C@@H](NC(=O)[C@@H](NC(=O)[C@H](CC(N)=O)NC(=O)[C@@H](N)CCCCN)C(C)C)[C@@H](C)O)[C@@H](C)O)C(=O)N[C@@H](C)C(=O)N[C@@H](CCCCN)C(=O)N[C@@H](CO)C(=O)N[C@@H](Cc1ccc(O)cc1)C(N)=O [α51-65, Lys--Asn--Val--Thr--Ser--Glu--Ser--Thr--Cys--Cys--Val--Ala--Lys--Ser--Tyr] (H-KNVTSESTCCVAKSY-NH2) | 237 ± 9.5 µM | –
– | CSCC[C@H](N)C(=O)NCC(=O)NCC(=O)N[C@@H](Cc1ccccc1)C(=O)N[C@@H](CCCCN)C(=O)N[C@H](C(=O)N[C@@H](CCC(=O)O)C(=O)N[C@@H](CC(N)=O)C(=O)N[C@@H](Cc1c[nH]cn1)C(=O)N[C@H](C(=O)N[C@@H](C)C(=O)N[C@@H](CS)C(=O)N[C@@H](Cc1c[nH]cn1)C(=O)N[C@@H](CS)C(=O)N[C@@H](CO)C(N)=O)[C@@H](C)O)C(C)C [α71-85, Met--Gly--Gly--Phe--Lys--Val--Glu--Asn--His--Thr--Ala--Cys--His--Cys--Ser] (H-MGGFKVENHTACHCS-NH2) | > 700 µM | –
– | CSCC[C@H](NC(=O)[C@@H](NC(=O)[C@@H](NC(=O)[C@@H](NC(=O)[C@H](CCCNC(=N)N)NC(=O)[C@H](CC(N)=O)NC(=O)[C@H](Cc1ccc(O)cc1)NC(=O)[C@H](CO)NC(=O)[C@H](CCCCN)NC(=O)[C@H](C)NC(=O)[C@@H](N)C(C)C)C(C)C)[C@@H](C)O)C(C)C)C(=O)NCC(=O)NCC(=O)N[C@@H](Cc1ccccc1)C(=O)N[C@@H](CCCCN)C(N)=O [α61-75, Val--Ala--Lys--Ser--Tyr--Asn--Arg--Val--Thr--Val--Met--Gly--Gly--Phe--Lys] (H-VAKSYNRVTVMGGFK-NH2) | > 700 µM | –
– | CC(C)C[C@H](NC(=O)[C@@H](NC(=O)[C@H](CS)NC(=O)[C@H](CCC(=O)O)NC(=O)[C@@H]1CCCN1C(=O)[C@H](CS)NC(=O)[C@H](CC(=O)O)NC(=O)[C@H](CCC(N)=O)NC(=O)[C@@H](NC(=O)[C@H](CC(=O)O)NC(=O)[C@@H]1CCCN1C(=O)[C@H](C)N)C(C)C)[C@@H](C)O)C(=O)N[C@@H](CCC(N)=O)C(=O)N[C@@H](CCC(=O)O)C(=O)N[C@@H](CC(N)=O)C(N)=O [α1-15, Ala--Pro--Asp--Val--Gln--Asp--Cys--Pro--Glu--Cys--Thr--Leu--Gln--Glu--Asn] (H-APDVQDCPECTLQEN-NH2) | > 700 µM | –
